Reference: ChEMBL document CHEMBL1201862, “PubChem BioAssay data set” (2004)
Calls of active or inactive are those of the source.

How the values were obtained:
H4 = assay: Luminescence Cell-Based Dose Response HTS to Identify Activators of 5'UTR Stem-Loop Driven Prion Protein mRNA Translation in H4 Neuroglioblastoma Cells. [Related pubchem assays: 1829 (Project Summary), 1814 (Primary HTS)]; format: functional; details: Homo sapiens
[1] = Luminescence Cell-Based Dose Confirmation to Identify Activators of 5'UTR Stem-Loop Driven Alpha-Synuclein mRNA Translation in H4 Neuroglioblastoma Cells. [Related pubchem assays: 1829 (Project Summary), 1814 (Primary HTS)]; format: functional
[2] = Luminescence Cell-Based Dose Response to Identify Activators of 5'UTR Stem-Loop Driven Prion Protein mRNA Translation in H4-C Neuroglioblastoma Cells. [Related pubchem assays: 1829 (Project Summary), 1814 (Primary HTS)]; format: functional
[3] = Luminescence Cell-Based Dose Response to Identify Activators of Luciferase Translation or Activity in H4-C Neuroglioblastoma Cells. [Related pubchem assays: 1829 (Project Summary), 1814 (Primary HTS)]; format: functional
[4] = A Cell Based Secondary Assay To Explore Cytotoxicity of Compounds that Sensitize Mycobacterium Tuberculosis to Beta-Lactam Antibiotics.; format: functional
[5] = inhibitors of Bluetongue virus cytopathic effect, confirmation, arbovirus, BSR cells (AID 1250); format: functional;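 also: protection from viral cytopathic effect measured as cell viability by ATP luminescence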
[6] = target: T1, Tyrosine-protein phosphatase non-receptor type 7 (Homo sapiens, UniProt P35236); assay: inhibitors of human HePTP phosphatase, […], biochemical, absorbance, leukemia target (AID 521); format: functional
T1 sequence (P35236 whole entry): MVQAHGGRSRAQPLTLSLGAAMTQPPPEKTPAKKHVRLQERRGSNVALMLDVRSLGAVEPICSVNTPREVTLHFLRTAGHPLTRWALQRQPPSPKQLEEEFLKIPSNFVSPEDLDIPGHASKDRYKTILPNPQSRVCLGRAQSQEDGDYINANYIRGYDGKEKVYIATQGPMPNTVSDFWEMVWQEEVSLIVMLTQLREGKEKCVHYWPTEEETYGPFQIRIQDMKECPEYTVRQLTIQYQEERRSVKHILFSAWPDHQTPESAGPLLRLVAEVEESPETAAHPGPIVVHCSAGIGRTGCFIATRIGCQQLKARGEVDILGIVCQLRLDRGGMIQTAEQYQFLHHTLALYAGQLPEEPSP

Estrogen receptor = target: T2, Estrogen receptor (Homo sapiens, UniProt P03372); assay: potentiators of ERα–SRC-1 coactivator binding, dose response, biochemical, TR-FRET, ERα LBD (AID 737)
T2 sequence (P03372 whole entry): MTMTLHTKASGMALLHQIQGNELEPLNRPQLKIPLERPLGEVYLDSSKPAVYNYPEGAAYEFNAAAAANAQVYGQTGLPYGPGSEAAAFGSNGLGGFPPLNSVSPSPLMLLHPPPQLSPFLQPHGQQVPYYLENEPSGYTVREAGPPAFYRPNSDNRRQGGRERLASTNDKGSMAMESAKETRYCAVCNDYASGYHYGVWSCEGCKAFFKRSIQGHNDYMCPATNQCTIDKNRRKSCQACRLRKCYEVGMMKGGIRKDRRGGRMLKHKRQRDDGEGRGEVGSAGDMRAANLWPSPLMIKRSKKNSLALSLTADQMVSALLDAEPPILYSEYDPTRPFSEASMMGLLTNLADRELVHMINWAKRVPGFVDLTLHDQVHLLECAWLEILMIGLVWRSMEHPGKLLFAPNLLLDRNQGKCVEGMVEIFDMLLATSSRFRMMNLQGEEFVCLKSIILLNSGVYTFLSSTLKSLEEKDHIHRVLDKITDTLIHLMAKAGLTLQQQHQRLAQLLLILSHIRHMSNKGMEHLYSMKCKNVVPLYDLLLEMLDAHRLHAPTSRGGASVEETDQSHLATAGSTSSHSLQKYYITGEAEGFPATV

Aminopeptidase N = target: T3, Aminopeptidase N (Plasmodium falciparum FcB1/Columbia, UniProt O96935); assay: P. falciparum M1AAP inhibitors, biochemical, fluorogenic H-Leu-NHMec substrate, 1536-well (AID 1445); set-up: species or system Plasmodium falciparum 3D7, 3D7
T3 sequence (O96935 whole entry): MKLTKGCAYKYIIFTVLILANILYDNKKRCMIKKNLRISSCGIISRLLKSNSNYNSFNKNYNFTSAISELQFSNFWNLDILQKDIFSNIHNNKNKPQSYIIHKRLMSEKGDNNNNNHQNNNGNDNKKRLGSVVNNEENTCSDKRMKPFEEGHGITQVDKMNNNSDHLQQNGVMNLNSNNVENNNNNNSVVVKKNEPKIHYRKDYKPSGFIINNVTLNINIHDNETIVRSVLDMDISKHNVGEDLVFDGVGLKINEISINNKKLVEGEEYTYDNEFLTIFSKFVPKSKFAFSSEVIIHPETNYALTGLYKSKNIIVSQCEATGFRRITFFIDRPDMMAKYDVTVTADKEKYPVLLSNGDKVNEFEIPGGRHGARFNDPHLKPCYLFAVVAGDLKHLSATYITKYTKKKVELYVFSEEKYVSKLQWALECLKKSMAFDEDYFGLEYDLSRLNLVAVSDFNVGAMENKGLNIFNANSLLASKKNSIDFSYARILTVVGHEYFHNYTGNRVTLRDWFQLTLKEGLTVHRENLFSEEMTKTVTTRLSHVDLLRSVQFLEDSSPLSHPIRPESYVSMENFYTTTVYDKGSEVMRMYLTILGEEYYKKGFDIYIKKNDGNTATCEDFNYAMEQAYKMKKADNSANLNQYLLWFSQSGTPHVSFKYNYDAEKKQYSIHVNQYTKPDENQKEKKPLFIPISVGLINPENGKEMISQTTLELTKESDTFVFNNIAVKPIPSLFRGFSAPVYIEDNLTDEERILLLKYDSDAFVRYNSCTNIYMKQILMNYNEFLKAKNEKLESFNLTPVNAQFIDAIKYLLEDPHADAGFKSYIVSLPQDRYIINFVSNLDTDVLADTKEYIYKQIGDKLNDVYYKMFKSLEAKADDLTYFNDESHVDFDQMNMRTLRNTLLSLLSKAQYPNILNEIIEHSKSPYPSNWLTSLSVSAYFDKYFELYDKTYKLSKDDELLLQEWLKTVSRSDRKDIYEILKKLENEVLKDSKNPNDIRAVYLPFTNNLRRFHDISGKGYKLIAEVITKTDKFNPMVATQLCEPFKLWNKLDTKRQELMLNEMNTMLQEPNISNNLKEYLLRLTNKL

Large T antigen = Large T antigen (Simian virus 40, UniProt P03070); format: functional, Betapolyomavirus macacae;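 also: Confirmatory-stage PubChem screen for compounds that inhibit SV40 T antigen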
[7] = target: Induced myeloid leukemia cell differentiation protein Mcl-1 (Homo sapiens, UniProt Q07820); assay: MCL1-BIM BH3 interaction inhibitors, dose response, biochemical, fluorescence polarization, BIM-BH3 peptide, 1536-well (AID 2217)
Bcl-2-like protein 1 = Bcl-2-like protein 1 (Homo sapiens, UniProt Q07817); assay: BCL-XL inhibitors, dose response, selectivity assay for MCL1 inhibitor project, biochemical, fluorescence polarization, 1536-well (AID 2218)
[8] = target: E3 ubiquitin-protein ligase Mdm2 (Homo sapiens, UniProt Q00987); assay: enhancers of MDM2-luciferase reporter signal, concentration-effect titration, project on inhibitors of MDM2 ubiquitin ligase, cellular assay, luminescent readout, 384-well plate format (AID 1394); format: functional;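 also: MDM2 E3 inhibitors raise luminescence so EC50 is for signal enhancement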
[9] = inhibitors of firefly luciferase expression or activity, dose response, H4 neuroglioma cells, luminescence (AID 1990); format: functional, cell-based
[10] = HEp-2 cell cytotoxicity, dose response, cytotoxicity control for RSV inhibitor project, HTS (AID 2410); format: functional; details: human respiratory syncytial virus
[11] = Luminescence Cell-Based Dose Response HTS to Identify Inhibitors of 5'UTR Stem-Loop Driven Prion Protein mRNA Translation in H4 Neuroglioblastoma Cells. [Related pubchem assays: 1827 (Project Summary), 1813 (Primary HTS)]; format: functional
[12] = inhibitors of SNCA 5'UTR-driven reporter translation, confirmation, H4 neuroglioma cells, luminescence (AID 1988); format: functional, cell-based
Vero = assay: cells; format: functional; details: Chlorocebus sabaeus
[13] = target: T4, Mannose-6-phosphate isomerase (Homo sapiens, UniProt P34949); assay: human PMI inhibitors, high substrate, primary screen, biochemical, fluorescence intensity, high mannose 6-phosphate (AID 1220)
T4 sequence (P34949 whole entry): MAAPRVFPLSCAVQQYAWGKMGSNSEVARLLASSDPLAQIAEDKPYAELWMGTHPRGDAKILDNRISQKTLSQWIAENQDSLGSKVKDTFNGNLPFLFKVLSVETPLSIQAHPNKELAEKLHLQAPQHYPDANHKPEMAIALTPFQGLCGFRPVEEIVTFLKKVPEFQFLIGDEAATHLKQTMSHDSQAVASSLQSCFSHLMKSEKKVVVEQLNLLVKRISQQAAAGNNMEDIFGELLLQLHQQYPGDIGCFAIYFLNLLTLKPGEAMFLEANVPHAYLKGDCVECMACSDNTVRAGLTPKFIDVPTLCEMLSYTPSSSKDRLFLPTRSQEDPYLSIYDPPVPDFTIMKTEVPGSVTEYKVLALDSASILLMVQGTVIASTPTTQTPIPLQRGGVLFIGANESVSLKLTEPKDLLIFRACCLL

[14] = NIH-3T3 fibroblast cytotoxicity, dose response, cytotoxicity control, cell-based, fluorescence, Alamar Blue, secondary assay (AID 2327); format: functional;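 also: NIH-3T3 mouse fibroblasts cultured with fluconazole at 8 µg/mL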
[15] = target: Glucose-6-phosphate 1-dehydrogenase (Homo sapiens, UniProt P11413); assay: human G6PD enzyme inhibitors, dose response, selectivity assay for P. falciparum G6PD inhibitor project, biochemical, fluorescence (AID 504792); format: functional
[16] = cytotoxicity toward NIH3T3 fibroblasts, dose response, counter-screen, cell-based, ATP luminescence, mouse fibroblasts (AID 2010); format: functional;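 also: cells exposed to compound for about 90 hours before reading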
[17] = C. albicans growth with fluconazole, confirmation, fluorescence, retest (AID 2467); format: functional, cell-based
[18] = inhibitors of intracellular T. cruzi replication, confirmation, NIH3T3 host cells, beta-gal luminescence (AID 2044); format: functional, cell-based;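 also: intracellular parasites grown in NIH/3T3 mouse fibroblasts as host cells; luminescent beta-galactosidase reporter signal from transgenic T. cruzi replicating inside host cells; inhibitors lower the luminescence signal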
[19] = target: T5, E3 ubiquitin-protein ligase XIAP (Homo sapiens, UniProt P98170); assay: Counter Screen using XIAP-Bir3 for Chemical Antagonists of Bir1/2 domains of IAP-family anti-apoptotic proteins. [Related pubchem assays (depositor defined):AID1018, AID1449, AID1514, AID1638, AID1749, AID1750, AID488957, AID488963]
[20] = target: T5, E3 ubiquitin-protein ligase XIAP; assay: XIAP antagonists, biochemical, IAP family, fluorescence polarization (AID 1018); format: functional
Estrogen receptor beta = Estrogen receptor beta (Homo sapiens, UniProt Q92731);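 also: recombinant ER-beta bound to coactivator SRC1 peptide in presence of estradiol agonist; inhibitors block coactivator peptide binding and lower the FRET signal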
[21] = Luminescence Cell-Based Dose Response HTS to Identify Activators of Luciferase Translation or Activity in H4 […] Cells. [Related pubchem assays: 1829 (Project Summary), 1814 (Primary HTS)]; format: functional

T5 sequence (P98170 whole entry): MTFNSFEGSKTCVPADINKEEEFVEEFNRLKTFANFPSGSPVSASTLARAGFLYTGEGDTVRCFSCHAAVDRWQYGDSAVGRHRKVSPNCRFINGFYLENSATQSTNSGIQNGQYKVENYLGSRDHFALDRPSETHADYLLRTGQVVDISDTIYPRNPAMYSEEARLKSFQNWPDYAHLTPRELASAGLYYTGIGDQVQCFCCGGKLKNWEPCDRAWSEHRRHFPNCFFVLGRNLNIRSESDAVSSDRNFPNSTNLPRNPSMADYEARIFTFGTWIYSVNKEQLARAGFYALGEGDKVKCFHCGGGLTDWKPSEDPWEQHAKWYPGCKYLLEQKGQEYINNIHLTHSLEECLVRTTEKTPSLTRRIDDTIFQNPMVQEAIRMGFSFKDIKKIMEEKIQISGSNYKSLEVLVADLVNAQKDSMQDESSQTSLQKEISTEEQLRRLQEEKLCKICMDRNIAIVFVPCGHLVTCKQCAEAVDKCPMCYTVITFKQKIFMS
Sequence of E3 ubiquitin-protein ligase Mdm2 (Q00987 whole entry): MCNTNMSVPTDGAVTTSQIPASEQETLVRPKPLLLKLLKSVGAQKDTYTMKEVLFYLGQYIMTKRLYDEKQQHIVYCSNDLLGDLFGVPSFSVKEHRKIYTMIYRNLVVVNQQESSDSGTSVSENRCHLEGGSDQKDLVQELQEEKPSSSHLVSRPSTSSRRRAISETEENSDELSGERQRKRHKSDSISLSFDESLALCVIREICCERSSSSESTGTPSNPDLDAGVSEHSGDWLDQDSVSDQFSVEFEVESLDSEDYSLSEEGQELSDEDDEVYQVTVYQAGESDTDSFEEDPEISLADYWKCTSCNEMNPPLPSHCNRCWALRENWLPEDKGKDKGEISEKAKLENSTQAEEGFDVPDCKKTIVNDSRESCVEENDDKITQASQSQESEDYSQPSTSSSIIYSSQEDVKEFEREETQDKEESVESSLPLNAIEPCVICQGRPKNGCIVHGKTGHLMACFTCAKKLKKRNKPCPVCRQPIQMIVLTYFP
Sequence of Bcl-2-like protein 1 (Q07817 whole entry): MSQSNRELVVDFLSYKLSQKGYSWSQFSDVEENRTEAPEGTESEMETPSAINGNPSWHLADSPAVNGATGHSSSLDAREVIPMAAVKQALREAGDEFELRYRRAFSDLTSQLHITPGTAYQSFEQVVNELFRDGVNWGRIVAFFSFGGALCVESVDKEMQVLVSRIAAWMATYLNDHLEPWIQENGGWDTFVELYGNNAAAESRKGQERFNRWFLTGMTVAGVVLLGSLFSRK
Sequence of Large T antigen (P03070 whole entry): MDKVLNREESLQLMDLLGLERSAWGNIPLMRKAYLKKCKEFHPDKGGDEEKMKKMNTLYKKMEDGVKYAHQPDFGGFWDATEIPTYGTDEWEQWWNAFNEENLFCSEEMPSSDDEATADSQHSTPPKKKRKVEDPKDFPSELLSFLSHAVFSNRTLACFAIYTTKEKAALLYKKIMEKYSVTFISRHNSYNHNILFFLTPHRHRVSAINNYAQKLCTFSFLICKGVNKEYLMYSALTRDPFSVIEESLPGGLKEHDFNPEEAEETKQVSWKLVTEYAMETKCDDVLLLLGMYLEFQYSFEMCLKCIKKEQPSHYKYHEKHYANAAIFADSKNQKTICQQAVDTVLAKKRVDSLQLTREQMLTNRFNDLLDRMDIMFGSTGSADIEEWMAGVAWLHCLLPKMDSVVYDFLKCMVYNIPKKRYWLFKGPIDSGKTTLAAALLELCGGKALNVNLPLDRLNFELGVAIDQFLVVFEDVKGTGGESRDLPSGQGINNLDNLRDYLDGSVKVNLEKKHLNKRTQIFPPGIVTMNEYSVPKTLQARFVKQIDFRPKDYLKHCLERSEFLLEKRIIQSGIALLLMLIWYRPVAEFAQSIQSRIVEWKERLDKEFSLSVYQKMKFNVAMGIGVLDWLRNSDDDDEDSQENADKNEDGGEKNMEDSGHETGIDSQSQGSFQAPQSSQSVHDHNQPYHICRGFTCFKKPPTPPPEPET
Sequence of Estrogen receptor beta (Q92731 whole entry): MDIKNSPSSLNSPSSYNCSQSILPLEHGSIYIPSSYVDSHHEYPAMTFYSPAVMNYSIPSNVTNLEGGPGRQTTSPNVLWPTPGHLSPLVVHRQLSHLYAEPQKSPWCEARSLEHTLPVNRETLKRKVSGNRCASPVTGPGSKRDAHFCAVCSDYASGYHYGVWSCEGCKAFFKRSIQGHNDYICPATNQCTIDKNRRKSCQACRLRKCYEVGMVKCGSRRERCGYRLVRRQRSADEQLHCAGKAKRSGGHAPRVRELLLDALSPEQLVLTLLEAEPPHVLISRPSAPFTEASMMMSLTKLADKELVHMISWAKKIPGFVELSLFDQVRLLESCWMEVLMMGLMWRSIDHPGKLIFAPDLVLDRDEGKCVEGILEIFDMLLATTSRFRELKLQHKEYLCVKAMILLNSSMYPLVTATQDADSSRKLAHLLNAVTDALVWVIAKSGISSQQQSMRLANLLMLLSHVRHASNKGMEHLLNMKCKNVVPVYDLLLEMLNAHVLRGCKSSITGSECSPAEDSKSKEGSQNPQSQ
Sequence of Glucose-6-phosphate 1-dehydrogenase (P11413 whole entry): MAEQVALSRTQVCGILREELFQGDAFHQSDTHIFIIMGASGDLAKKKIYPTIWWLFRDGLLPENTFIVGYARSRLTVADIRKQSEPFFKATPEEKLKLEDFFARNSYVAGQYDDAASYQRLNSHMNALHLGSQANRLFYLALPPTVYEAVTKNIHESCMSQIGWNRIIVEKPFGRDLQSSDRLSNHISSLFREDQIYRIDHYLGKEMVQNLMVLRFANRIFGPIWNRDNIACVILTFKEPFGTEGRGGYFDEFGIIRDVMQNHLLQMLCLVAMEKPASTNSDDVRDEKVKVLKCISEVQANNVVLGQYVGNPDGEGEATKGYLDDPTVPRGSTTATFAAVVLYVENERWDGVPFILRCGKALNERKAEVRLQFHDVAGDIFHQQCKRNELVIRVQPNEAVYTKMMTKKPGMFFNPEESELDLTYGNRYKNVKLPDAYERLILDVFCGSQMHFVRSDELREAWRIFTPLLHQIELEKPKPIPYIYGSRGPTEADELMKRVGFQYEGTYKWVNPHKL
Sequence of Induced myeloid leukemia cell differentiation protein Mcl-1 (Q07820 whole entry): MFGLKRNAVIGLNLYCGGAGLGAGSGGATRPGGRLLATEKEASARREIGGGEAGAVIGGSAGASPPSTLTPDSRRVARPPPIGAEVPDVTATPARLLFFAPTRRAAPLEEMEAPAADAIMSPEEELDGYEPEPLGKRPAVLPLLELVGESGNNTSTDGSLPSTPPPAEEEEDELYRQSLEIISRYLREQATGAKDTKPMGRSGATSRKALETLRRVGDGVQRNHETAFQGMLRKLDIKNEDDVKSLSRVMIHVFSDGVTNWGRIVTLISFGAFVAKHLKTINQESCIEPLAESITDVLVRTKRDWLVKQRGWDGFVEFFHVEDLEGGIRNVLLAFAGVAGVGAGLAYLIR

## CC(C)(C)c1ccc(OCCn2ccccc2=O)cc1
H4
  EC50: < 0.1 µM (active)
[1]
  EC50: 0.668 µM (active)
[2]
  EC50: 0.546 µM (active)
[3]
  EC50: 0.237 µM (active)

## CC(C)Cn1c2c(c(O)c(C(=O)Nc3nccs3)c1=O)CCCC2
[4]
  CC50: > 40 µM (active)
[5]
  IC50: 94.4 µM (active)

## CCn1cc(C(=O)NCC2CCCO2)c(=O)c2cc(S(=O)(=O)N3CCC(C)CC3)ccc21 (stereo not drawn)
[6]
  IC50: > 100 µM (not active)

## Cc1ccc(NC(=O)CSc2nnc(-c3cnccn3)n2Cc2ccco2)cc1C
Estrogen receptor
  EC50: 37.6 µM (not active)

## COc1ccc(OC)c(C2C(C(=O)Nc3ccccc3OC)=C(C)Nc3nc(CCCO)nn32)c1 (stereo not drawn)
[6]
  IC50: > 100 µM (not active)

## O=C(Nc1scc(-c2cccs2)c1C(=O)O)c1cccs1
Aminopeptidase N
  IC50: 49.2 µM (active)
[5]
  IC50: 24 µM (active)

## O=C(O)C1Nc2ccc(OC(F)(F)F)cc2C2C=CCC12 (stereo not drawn)
Large T antigen
  IC50: 12.7 µM (active)
[7]
  IC50: 8.63 µM (active)
Bcl-2-like protein 1
  IC50: 60.6 µM (not active)

## Cc1cc(NC(=O)CSc2nc(C(C)C)nc3c2c(=O)n(C)c(=O)n3C)no1
[8]
  EC50: 12.3 µM (not active)

## COc1ccc(/N=C2/C(=N\c3ccc(OC)cc3)N(c3ccc(OC)cc3)C(=S)N2c2ccc(N(C)C)cc2)cc1
[9]
  EC50: 0.146 µM (active)
cells
  IC50: 5.89 µM (active)
[10]
  CC50: > 50 µM (active)
[11]
  EC50: 0.126 µM (active)
[12]
  EC50: 0.123 µM (active)

## COc1cc(CNc2ccc(N3CCCC3)cc2)cc(Cl)c1OC
Vero
  CC50: 4.57 µM (active)
[13]
  IC50: > 50 µM (not active)
[14]
  EC50: 48.1 µM (inconclusive)
[15]
  IC50: > 80 µM (inactive)
[16]
  EC50: > 30 µM (not active)
[17]
  EC50: > 38 µM (not active)
[18]
  EC50: 2.95 µM (active)

## COc1ccccc1Cn1c(=O)c2ccccc2n2c(SCC(=O)N3CCCCC3)nnc12
[19]
  IC50: > 100 µM (inactive)
[20]
  IC50: > 100 µM (not active)

## CN(C1CCCCC1)S(=O)(=O)c1ccc(S(=O)(=O)N2CCN(CCC#N)CC2)cc1
Estrogen receptor beta
  IC50: > 50 µM (not active)

## CC(=O)Nc1ccc(S(=O)(=O)N(C)CC(=O)OCC(=O)N2CCc3ccccc32)cc1
[8]
  EC50: 149 µM (not active)

## O=C(NC1=NCCS1)c1ccc(Cl)cc1
H4
  EC50: 101 µM (active)
[1]
  EC50: 0.24 µM (active)
[2]
  EC50: 0.744 µM (active)
[21]
  EC50: < 0.1 µM (inconclusive)
[3]
  EC50: 0.401 µM (active)

## O=c1nc(NCc2ccco2)sc2ncccc12
[19]
  IC50: > 100 µM (inactive)
[20]
  IC50: > 100 µM (not active)
